We go through two molecules from patent US20220233435A1 (priority 2019, published 2022).

The data set can be described thus: Release of nicotine and vanillin from devices in artificial saliva. The format is physicochemical. Conditions: device with 50 w-% PVA / 50 w-% PLA, ca. 20 mg. As to the method:
Three devices of each polymer matrix formulation were chosen for drug release experiments. Prior to the experiments, the dimensions and weight of the capsules were recorded. In the drug release experiments, the capsules were immersed in 2 mL of artificial saliva, which itself consists of a solution of 16.8 mM Na2HPO4, 1.4 mM KH2PO4, and 137 mM NaCl salts dissolved in purified water at pH 6.75. The solution was kept at 37° C. and under constant stirring. Once a day, 150 μL of solution was withdrawn from each sample to measure the amount of released drug in a high-performance liquid chromatography apparatus (HPLC). An equal amount of solution was added after each withdrawal to keep the total volume constant. The experiment was ceased between 35 and 42 days, due to devices turning red resulting from paracetamol degradation, or when all the drug was deemed to be released.
The release of nicotine and vanillin was measured similarly as in Examples 1 and 2.

SMILES strings stand for the structures.

As to `CN1CCCC1c1cccnc1` (stereo not drawn) [Nicotine, nicotine], the “loading degree in device” value is reported as 0.04 w-%. Moreover, the “cumulative release from device” value (day 2) was 6 µg. For the same molecule, the “cumulative release from device” value (day 14) is listed as “ca. 7 μg”.

Regarding `COc1cc(C=O)ccc1O` [Vanillin, vanillin], the “loading degree in device” value stood at 0.32 w-%. The “cumulative release from device” value (day 4) is “ca. 50 μg”. The “cumulative release from device” value (day 7) was 65 µg.
